Reference: patent US20230047825A1, “ANTIMICROBIAL PEPTIDES” (priority 2019, published 2023)
Values after ≈ are worked out from the molar mass of the structure shown. Like-named read-outs stand apart in the source and are kept apart here.

Key:
[1] = test system: Staphylococcus aureus VRS-2 (VanA, VRSA); test: microbe, parasite or virus in culture; details: for MIC: Staphylococcus aureus, VRSA
Experimental: (§1) The S. aureus strains ATCC 29213, ATCC 19636, ATCC 33591 (MRSA), BAA-1556 (MRSA USA 300) were obtained from the American Type Culture Collection (ATCC). […] The species identity was confirmed with 16S rRNA analysis.
(§2) Two broth mediums were used, Mueller Hinton Broth and RPMI 1640+5% fetal bovine serum. Test substances were evaluated in 11-point titrations and performed in duplicate.
(§3) The direct colony suspension method was used to prepare inoculated broth. Isolated colonies were taken from an 18-24 h culture plate. Optical density measurements (OD620nm) were used to estimate the bacterial density. […] The stock solutions were diluted by 2-fold serial titrations with their respective vehicles for a total of 11 concentrations.
(§4) A 4 μL aliquot of each dilution was added to 196 μL of broth medium seeded with the organism in wells of a sterilized 96 well polypropylene plate (Nunc™ 249949) using aluminum foil as cover. The final bacterial count was 2 to 8×10^5 CFU/mL. […] The final test article concentration range was 32 to 0.0313 μg/mL.
(§5) Each test substance dilution was evaluated in duplicate on one test occasion. […] Plates were incubated at 35-37° C. for 18 h. The test plates were visually examined and each well was visually scored for growth or complete inhibition of growth. The MIC value was recorded.

[2] = test system: Staphylococcus aureus ATCC 19636 (Smith); test: microbe, parasite or virus in culture; details: for MIC: Staphylococcus aureus
Experimental: as §1, §2, §3, §4, §5

[3] = test system: Staphylococcus aureus ATCC 29213; test: microbe, parasite or virus in culture; details: for MIC: Staphylococcus aureus
Experimental: as §1, §2, §3, §4, §5

[4] = test system: Staphylococcus aureus ATCC BAA-1556 (USA300, MRSA); test: microbe, parasite or virus in culture; details: for MIC: Staphylococcus aureus
Experimental: as §1, §2, §3, §4, §5

[5] = test system: Staphylococcus aureus ATCC 33591 (MRSA); test: microbe, parasite or virus in culture; details: for MIC: Staphylococcus aureus
Experimental: as §1, §2, §3, §4, §5

EMRSA-15 lung infection = test system: EMRSA-15 lung infection
Experimental: Murine EMRSA-15 lung infection model. In one embodiment this was carried out using the method described previously,^58 an overnight culture of EMRSA-15 was prepared in tryptic soy broth (TSB). EMRSA-15 was cultured in TSB overnight at 37° C., adjusted to a starting OD600 of 0.025, and grown for additional 4 h for agar beads preparation. EMRSA-15 was embedded into agar beads by mixing the overnight culture with molten tryptic soy agar, which was then spun into warmed mineral oil. The preparation was cooled and centrifuged at 2,700 g, the remaining oil was eliminated and the beads were washed in sterile PBS. The colony forming unit (cfu) content of the beads slurry was subsequently quantified on TSA plates and the beads slurry then diluted to either 2×10^7 cfu/ml in sterile PBS to deliver a final dose of either 1×10^6 cfu/mouse. Animal work was performed in accordance with the Animals (Scientific Procedures) Act of 1986 (United Kingdom). On day 0, male C57B16J mice (8-10 weeks, Charles River) were anesthetized under Isoflurane and 50 μl inoculum of EMRSA-15 embedded in agar beads (10^6 cfu/mouse) was instilled directly into the respiratory tract via oropharyngeal dosing (o.a) to reduce severity associated with surgery. Sham control mice were inoculated with sterile PBS agar beads. […] Body weight was measured daily, and animals monitored at regular intervals for signs of pain and distress. 48 hours post pulmonary infection, animals were terminally euthanized using 25% Urethane via intra-peritoneal injection. Lungs, were removed and homogenized in 2 ml PBS. Samples were serially diluted 1:10 in PBS and plated for CFU count. Lung homogenates were then centrifuged at 14000 rpm for 30 min at 4° C. and the supernatants were stored at −80° C. for future analysis. For bronchoalveolar lavage fluid collection and analysis (total and differential cell count), a 22-gauge catheter was inserted into the trachea and BAL was recovered by instillation of 0.5 ml of sterile PBS three times and total cells counts were performed by adding Turks stain in a 1:1 ratio. Total cells were then enumerated on an improved Naubauer haemocytometer. BAL fluid was then centrifuged, and supernatants were stored at −20° C. Cytospin slides were prepared and 100 μl of BAL was added into a cytospin funnel and centrifuged at 1000 rpm for 1 minute on a medium acceleration. The slides were then stained using Diff-Quick (Dade, Biomap, Italy).
More suitably Murine EMRSA-15 lung infection model was carried out using the method described previously,^58 an overnight culture of EMRSA-15 was prepared in tryptic soy broth (TSB). EMRSA-15 was cultured in TSB overnight at 37° C., adjusted to a starting OD600 of 0.025, and grown for additional 4 h for agar beads preparation. EMRSA-15 was embedded into agar beads by mixing the overnight culture with molten tryptic soy agar, which was then spun into warmed mineral oil. The preparation was cooled and centrifuged at 2,700 g, the remaining oil was eliminated, and the beads were washed in sterile PBS. The colony forming unit (CFU) content of the beads slurry was subsequently quantified on TSA plates and the beads slurry then diluted to either 2×10^7 CFU/ml in sterile PBS to deliver a final dose of either 1×10^6 CFU/mouse. Animal work was performed in accordance with the Animals (Scientific Procedures) Act of 1986 (United Kingdom). On day 0, male C57B16J mice (8-10 weeks, Charles River) were anesthetized under Isoflurane and 50 μl inoculum of EMRSA-15 embedded in agar beads (10^6 CFU/mouse) was instilled directly into the respiratory tract via oropharyngeal dosing (o.a.) to reduce severity associated with surgery. Sham control mice were inoculated with sterile PBS agar beads.

[6] = test system: P. aeruginosa RP73 lung infection; test: Murine P. aeruginosa RP73 lung infection model; format: in vivo, mouse
[7] = test system: EMR Staphylococcus aureus-16 (EMRSA-16); format: cell-based; details: EMRSA16; medium and unit not given; in µg/mL
[8] = test system: Acinetobacter baumannii ATCC 17978; format: cell-based; details: AB17978; medium and unit not given; in µg/mL
Klebsiella pneumoniae M6 = format: cell-based; details: medium and unit not given, in µg/mL
[9] = test system: MS Staphylococcus aureus ATCC 9144; format: cell-based; details: MSSA9144; medium and unit inferred
[10] = test system: Escherichia coli NCTC 12923; format: cell-based; details: EC12923; medium and unit not given; in µg/mL
[11] = test system: EMR Staphylococcus aureus-15 (EMRSA-15); format: cell-based; details: EMRSA15; medium and unit inferred
VRE12201 = test: Antibacterial activity assay (broth microdilution MIC); format: cell-based, Enterococcus faecalis; details: medium and unit inferred
From the text: Antibacterial activity assay.
The bacterial strains used are as in the above examples. A table of strains is provided below to aid understanding.

[12] = test system: Pseudomonas aeruginosa PA01; test: as above; format: cell-based; details: medium and unit not given, in µg/mL
[13] = test system: Acinetobacter baumannii AYE; format: cell-based; details: AYE; medium and unit not given; in µg/mL
HeLa = test: Cytotoxicity assay (XTT); format: cell-based, human; parameters: Toxicity HeLa: unit not given beside the values; details: unit not given
Experimental: (§6) Cytotoxicity assay. HeLa and HEK293 cell lines were purchased from ECACC and cultured in Eagle's Minimum Essential Media (EMEM) containing glutamine, supplemented with 10% FBS and 1× non-essential amino acids (NEAA) at 37° C., 10% CO2. Cytotoxicity was measured by incubating starter cultures of cells for 24 hours in a 96 well plate, gently removing the supernatant and replacing it with dilutions of peptides and controls, incubating for a further 24 hours and then staining of the cells with the second generation tetrazolium dye, XTT. […]

[14] = test system: Klebsiella pneumoniae NCTC 13368; format: cell-based; details: KP13368; medium and unit not given; in µg/mL
HEK293 = test: Cytotoxicity assay (XTT); format: cell-based, human; details: unit not given
Experimental: as §6

[15] = test system: Pseudomonas aeruginosa NCTC 13437; test: Antibacterial activity assay (broth microdilution MIC); format: cell-based; details: PA13437; medium and unit not given; in µg/mL
C. albicans = test: MIC on initial panels, fungi; format: cell-based; details: unit inferred
[16] = test system: VS Enterococcus faecalis NCTC 775; test: Antibacterial activity assay (broth microdilution MIC); format: cell-based; details: VSE775; medium and unit not given; in µg/mL

CN[C@H](CC(C)C)C(=O)N[C@H]1C(=O)N[C@@H](CC(N)=O)C(=O)N[C@H]2C(=O)N[C@H]3C(=O)N[C@H](C(=O)N[C@H](C(=O)O)c4cc(O)cc(O)c4-c4cc3ccc4O)[C@H](O)c3ccc(c(Cl)c3)Oc3cc2cc(c3O[C@@H]2O[C@H](CO)[C@@H](O)[C@H](O)[C@H]2O[C@H]2C[C@](C)(N)[C@H](O)[C@H](C)O2)Oc2ccc(cc2Cl)[C@H]1O [Vancomycin]
MIC ([1]; 18 h, read-out: MIC, antibiotic susceptibility, VRS-2, CLSI M7-A10, unit inferred): > 64 µg/mL
MIC ([1]; VRS-2, MHB): 4 µg/mL (≈ 2.76 µM)
MIC ([1]; VRS-2, RPMI + 5% FBS): > 32 µg/mL
susceptibility category (CLSI M100 interpretive criteria) ([1]; VRS-2): R
susceptibility category (CLSI M100 interpretive criteria) ([2]; ATCC 19636 (Smith)): S
MIC ([2]; ATCC19636, 18 h, read-out: MIC, antibiotic susceptibility, ATCC 19636 (Smith), CLSI M7-A10, unit inferred): 1 µg/mL (≈ 0.69 µM)
MIC ([2]; ATCC19636, ATCC 19636 (Smith), MHB): 0.5 µg/mL (≈ 0.345 µM)
MIC ([2]; ATCC19636, ATCC 19636 (Smith), RPMI + 5% FBS): 2 µg/mL
susceptibility category (CLSI M100 interpretive criteria) ([3]; ATCC 29213): S
MIC ([3]; ATCC29213, 18 h, read-out: MIC, antibiotic susceptibility, ATCC 29213, CLSI M7-A10, unit inferred): 0.5 to 1 µg/mL (≈ 0.345 to 0.69 µM)
MIC ([3]; ATCC29213, ATCC 29213, MHB): 0.5 µg/mL (≈ 0.345 µM)
MIC ([3]; ATCC29213, ATCC 29213, RPMI + 5% FBS): 2 µg/mL
susceptibility category (CLSI M100 interpretive criteria) ([4]; BAA-1556): S
MIC ([4]; ATCC BAA-1556, MHB): 0.5 µg/mL (≈ 0.345 µM)
MIC ([4]; ATCC BAA-1556, RPMI + 5% FBS): 2 µg/mL
MIC ([4]; ATCCBAA1556|BAA1556|MRSA|USA300, 18 h, read-out: MIC, antibiotic susceptibility, BAA-1556, CLSI M7-A10, unit inferred): 0.5 to 1 µg/mL (≈ 0.345 to 0.69 µM)
susceptibility category (CLSI M100 interpretive criteria) ([5]; ATCC 33591): S
MIC ([5]; ATCC 33591, MHB): 1 µg/mL (≈ 0.69 µM)
MIC ([5]; ATCC 33591, RPMI + 5% FBS): 4 µg/mL
MIC ([5]; ATCC33591|MRSA, 18 h, read-out: MIC, antibiotic susceptibility, ATCC 33591, CLSI M7-A10, unit inferred): 1 µg/mL (≈ 0.69 µM)
IL-6 and neutrophil recruitment in BAL (EMRSA-15 lung infection; following therapy, i.v.): reduced
macrophage numbers, TNFα and MCP-1 levels in BAL (EMRSA-15 lung infection; following therapy, i.v.): No effects
effective cumulative dose over 48 hrs (EMRSA-15 lung infection; murine EMRSA-15 lung infection): 200 mg/kg
mouse KC levels in BAL (EMRSA-15 lung infection; vancomycin 600 mg/kg or the two higher D-pleurocidin-KR doses (15, 1.5 mg/kg cumulative)): KC levels to fall to that of the uninfected group

NC[C@H]1O[C@H](O[C@H]2[C@H](O)[C@@H](O[C@H]3O[C@H](CO)[C@@H](O)[C@H](N)[C@H]3O)[C@H](N)C[C@@H]2N)[C@H](N)C[C@@H]1O [tobramycin]
reduction in lung CFU ([6]; 25 mg/kg tobramycin (p=0.0919)): 0.8 log10
reduction in lung CFU ([6]; cumulative dose of 200 mg/kg tobramycin over 30 hours): 1.4 log10

GWGSFFRRAAHAGRHAGRAALTHYL-NH2 [D-pleuro-VAKR, 6x substituted (4 K->R plus 2 V->A), D-amino acids]
MIC on initial panels [7]: 64
MIC on initial panels [8]: 2
MIC on initial panels (Klebsiella pneumoniae M6): 4
MIC on initial panels [9]: 8 µg/mL
MIC on initial panels [10]: 2
MIC on initial panels [11]: 32 µg/mL
MIC on initial panels (VRE12201): 128 µg/mL
MIC on initial panels [12]: 4
MIC on initial panels [13]: 2
Toxicity HeLa (HeLa): 124.0 ± 30.4
MIC on initial panels [14]: 4-8
Toxicity HEK293 (HEK293): 201.2 ± 25.1
MIC on initial panels [15]: 32
MIC on initial panels, Fungi (C. albicans): 32 µg/mL
MIC on initial panels [16]: 32-64
